Read-outs that look alike come from different tables or passages of the source.

The values that follow come from patent publication US12527814B2, “Treatment of an ocular infection, composition and methods thereof” (priority 2019, dated 2026).

In data set [1] the test system is Tsukamurella. Conditions: literature refs 3, 12; cited from earlier work.
For data set [2], the system named is T. pulmonis-PW1004. The data set can be described thus: Treatment of experimental Tsukamurella keratitis in rabbits. On the procedure:
6.4.4 Development of a rabbit model for Tsukamurella keratitis. Bacterial suspensions used to infect rabbits were prepared by culturing T. pulmonis-PW1004 in BHI for 48 h. Eight male NZW rabbits, 1.5-2.0 kg, were inoculated intrastromally as described previously^37. Corneas of 4 rabbits were injected with approximately 10 μl (i.e., 10^6 CFU) of T. pulmonis-PW1004 using a microliter syringe with a 30 G needle. Another 4 rabbit corneas were challenged with plain culture medium as the control. Rabbits were monitored daily for signs of disease. At 24 h PI, rabbit eyes were photographed, evaluated for pathology, and sacrificed. After euthanasia, the corneas of each rabbit were surgically removed for histopathological and immunohistochemical analyses and bacterial enumeration.
6.4.5 Treatment of experimental Tsukamurella keratitis. Efficacy of the two antibiotics, topical 0.5% Cravit® levofloxacin (Santen Pharmaceutical Company, Japan) and 0.02% PHMB (Lonza, Switzerland), for the treatment of Tsukamurella keratitis were evaluated, respectively. Tsukamurella keratitis was first established in 12 NZW rabbits (n=4 per group) using procedures as described above. Infection was allowed to proceed for 24 h before initiation of antibiotic therapy. These 12 NZW rabbits were divided into 3 topical treatment groups: (1) 0.5% levofloxacin, (2) 0.02% PHMB, and (3) saline. Treatment regimens of levofloxacin and PHMB were performed according to Fiscella et al. and Kowalski et al., respectively, with slight modifications^16,17. For the first group of rabbits treated with levofloxacin (n=4), drops (50 μl) of levofloxacin were applied to the affected eyes hourly for 10 doses over 3 days. For the second group of rabbits treated with PHMB (n=4), drops (50 μl) of PHMB were applied to the affected eyes hourly for 8 doses over 3 days. Rabbits in the third control group (n=4) received the same regimen of sterile saline (0.85% NaCl) hourly for 10 doses over 3 days. In addition to these 3 treatment groups, two extra NZW rabbits without infection were used as controls (i.e., mock-infected and mock-treated rabbits), receiving the same regimen of saline for 3 days. One hour after the final instillation of the antibiotics and saline drops, rabbit eyes were photographed, evaluated for pathology, and sacrificed. The treatment efficacy was compared and evaluated by the quantitative culture and histopathological analysis of the infected corneas.
6.4.6 Quantification of Tsukamurella cells. To quantify the number of viable Tsukamurella in the cornea, the cornea harvested from each rabbit was cut into smaller pieces using a sterile scalpel. The corneal pieces were placed into a sterile tube containing 500 μl of PBS (pH 7.2). Each tissue was homogenized, and homogenates were serially diluted 10-fold in PBS (pH 7.2). One hundred microliters of each diluted sample was plated in triplicate on the BHI agar and incubated at 37° C. under aerobic conditions for 48 h. The number of bacteria was determined and expressed as CFU/cornea.
To examine the histopathology of corneal tissues of rabbits challenged with the PW1004-WT and its derivative mutants, excised infected eyes, including the cornea of challenged rabbits, were subjected to histopathological examination. Corneal tissues harvested from the rabbits were fixed in 10% neutral-buffered formalin, embedded in paraffin, and stained with hematoxylin and eosin (H&E) according to Fischer et al.^39.

The test system of data set [3] is T. pulmonis-PW1004. The settings on record: for Zone of inhibition: 6 mm disk, 48 h, 37° C. The source says: Disk diffusion assay was initially used to determine the susceptibility of T. pulmonis-PW1004 against various concentrations of PHMB. Briefly, standard paper disks, 6 mm in diameter, impregnated with different dilutions of PHMB (0.0005%, 0.001%, 0.0025%, 0.005%) were placed onto BHI agar plates inoculated with overnight culture of a 0.5 McFarland standard prepared from T. pulmonis-PW1004, following standard procedures^15. Paper disks soaked in 0.85% NaCl were used as the control. Zones of inhibition were measured after 48 h of incubation at 37° C. under aerobic conditions. […] Next, we re-examined the susceptibility of the 4 contact lens solutions against the 7 Tsukamurella species by adjusting the final concentration of PHMB to 0.0025%, following the procedures as described in the previous paragraph.

Data set [4] relates to T. tyrosinosolvens-PW899. Here is the method:
(§1) 6.4.9 In vitro susceptibility of planktonic cultures of Tsukamurella against contact lens and PHMB solutions. A susceptibility test was performed following the procedures as described in FDA/ISO14729 stand-alone procedure for disinfecting products^13. Briefly, 0.1 ml of 1×10^8 CFUs/ml bacterial suspension from 7 different Tsukamurella species was added into 10 ml each of the 4 commercial contact lens solutions, respectively, and the mixture was incubated at room temperature according to the manufacturer's recommended disinfection time (Table 1). After incubation, a 1-ml aliquot was withdrawn from each mixture and added to 9 ml of Dey-Engley neutralizing broth (Sigma, USA) for 15 min at room temperature for neutralization of the preservative. The mixture was then serially diluted, and 100 μl of each diluted sample was plated in triplicate on the BHI agar for sampling of viable bacteria. P. aeruginosa ATCC27853 was used as a control. The mean logarithmic reduction was calculated. According to the guideline, only a contact lens solution capable of reducing the viability of starting concentration of bacteria by 3-log is defined as satisfactory. All experiments were performed in triplicate and repeated 3 times along with the control strain.

Data set [5] has as its system T. pulmonis-PW1004. On the procedure: as §1
[6] abbreviates: 0.02% PHMB topical for 3 days, compared to saline control rabbits.
[7] abbreviates: PHMB 0.005% compared with 0.0025%.

As to `O=C(N[C@H](CO)[C@H](O)c1ccc([N+](=O)[O-])cc1)C(Cl)Cl` [chloramphenicol], the “susceptibility of Tsukamurella to topical antibiotic eye drops” value in data set [1] is listed as “generally resistant”.

`C[C@H]1COc2c(N3CCN(C)CC3)c(F)cc3c(=O)c(C(=O)O)cn1c23` [levofloxacin]: the “corneal perforation and adverse signs” value in data set [2] (rabbit, in vivo) was “corneal perforations with severe discharges accompanied by behavioral abnormalities”.

For polyhexamethylene biguanide [PHMB], the Zone of inhibition in data set [3] (PHMB concentration 0.0005%) is 0 mm; in data set [3] (PHMB concentration 0.001%), 0 mm; in data set [3] (PHMB concentration 0.0025%), 13 mm; in data set [3] (PHMB concentration 0.005%), 14 mm. The “minimal concentration that achieved good efficacy” value in data set [3] (disk diffusion, preliminary results) stood at 0.0025%. Also, in data set [2] (setting [6]), the “PMN infiltration in corneal stroma and epithelium” value is “less evident”. The “histological examination: stromal edema and capillary formation” value in data set [2] (setting [6]) is recorded as “lower degree of stromal edema as well as capillary formation”. Also, in data set [2] (setting [6]), the “keratitis symptoms, gross appearance” value was “keratitis symptoms became less severe”. In addition, in data set [2] (0.02% PHMB topical, hourly 8 doses over 3 days, started 24 h PI, P<0.01 vs saline), the “number of bacteria recovered from the cornea” value amounted to 1.05±0.07 log. In data set [2] (0.02% PHMB topical, whole course of treatment), the corneal perforation entry is recorded as “did not observe corneal perforation”. For the same compound, in data set [2] (PHMB 0.02% topical), the “toxicity in rabbit corneal tissues” value is recorded as “no toxicity”. For the same compound, the log reduction in data set [4] (PHMB 0.0005%) is reported as below 3 log; in data set [4] (PHMB 0.001%) it was below 3 log; in data set [4] (PHMB 0.0025%) it was 3 log; in data set [5] (PHMB 0.0005%) it was below 3 log; in data set [5] (PHMB 0.001%), below 3 log; in data set [5] (PHMB 0.0025%), 3 log. Besides, the “further reduction of bacterial numbers” value in data set [4] (setting [7]) and in data set [5] (setting [7]) was “could not be further reduced” in each case.
